Measurements as given in PubChem BioAssay AID330 (DTP/NCI, 2004).
“And” between values parts separate entries of the source, which are not always exact repeats. Equal values may be shown once. Toxic doses and inconclusive results are not listed.

Test system: P388 leukemia ip, CD2F1 mice, survival T/C
Experiment: NCI In Vivo Anticancer Drug Screen. Data for tumor model P388 Leukemia (intraperitoneal) in CD2F1 (CDF1) mice
Details: endpoint: median survival time, higher = longer survival
Summary of the method: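 Mice carrying the transplanted tumor received test compound or vehicle. Survival was recorded in each group, and the value is the treated-group measurement divided by that of the vehicle-treated control group.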

[1] = dose: 6.25 mg/kg/injection, schedule: Q01DX009 (ip), vehicle: saline
[2] = dose: 50.0 mg/kg/injection, schedule: Q01DX005 (ip), vehicle: saline with Tween-80
[3] = dose: 100.0 mg/kg/injection, schedule: Q01DX005 (ip), vehicle: saline with Tween-80
[4] = dose: 200.0 mg/kg/injection, schedule: Q01DX005 (ip), vehicle: saline with Tween-80

For `C=CC[n+]1ccc(-c2cc[n+](CC=C)cc2)cc1`, the T/C [1] was 115 % of control and the T/C (dose: 12.5 mg/kg/injection, schedule: Q01DX009 (ip), vehicle: saline) was 112 % of control and 117 % of control.
For `COc1cc(C(N)CCc2ccc3c(c2)OCO3)cc(OC)c1OC` (configuration not stated), the T/C (dose: 50.0 mg/kg/injection, schedule: Q01DX005 (ip), vehicle: Klucel (hydroxypropylcellulose) (HPC)) was 110 % of control and the T/C (dose: 100.0 mg/kg/injection, schedule: Q01DX005 (ip), vehicle: Klucel (hydroxypropylcellulose) (HPC)) was 98 % of control.
With `CCOC(=O)C1=C(C)O/C(=C/c2cccc(Cl)c2)C1=O` the T/C [2] was 117 % of control and 119 % of control, the T/C [3] was 121 % of control and 123 % of control and the T/C [4] was 113 % of control.
For `CCOC(=O)C[N+]12CCC34c5cc(OC)c(OC)cc5N5C(=O)CC6OCC=C(C1)C(CC32)C6C54` (configuration not stated), the T/C (dose: 1.56 mg/kg/injection, schedule: Q01DX009 (ip), vehicle: saline with Tween-80) was 100 % of control and 108 % of control, the T/C (dose: 3.12 mg/kg/injection, schedule: Q01DX009 (ip), vehicle: saline with Tween-80) was 100 % of control and 108 % of control and the T/C (dose: 25.0 mg/kg/injection, schedule: Q01DX009 (ip), vehicle: saline with Tween-80) was 105 % of control (2×) and 94 % of control. For the same compound, the T/C (dose: 50.0 mg/kg/injection, schedule: Q01DX009 (ip), vehicle: saline with Tween-80) was 105 % of control and 111 % of control and 95 % of control and the T/C (dose: 100.0 mg/kg/injection, schedule: Q01DX009 (ip), vehicle: saline with Tween-80) was 105 % of control and 111 % of control and 98 % of control.
`O=C1C(Cl)=C(Cl)C(=O)N1c1ccc(Br)cc1Br` was tested, and the T/C (dose: 100.0 mg/kg/injection, schedule: Q04DX002 (ip), vehicle: Klucel (hydroxypropylcellulose) (HPC)) was 105 % of control, the T/C (dose: 200.0 mg/kg/injection, schedule: Q04DX002 (ip), vehicle: Klucel (hydroxypropylcellulose) (HPC)) was 105 % of control and the T/C (dose: 400.0 mg/kg/injection, schedule: Q04DX002 (ip), vehicle: Klucel (hydroxypropylcellulose) (HPC)) was 100 % of control.
`OC1(c2cc3ccccc3c3ccccc23)c2ccccc2-c2ccccc21` was tested, and the T/C [2] was 98 % of control, the T/C [3] was 100 % of control and the T/C [4] was 100 % of control.
With `CNC(=O)N(N=O)c1[nH]c(=O)ncc1Br` the T/C (dose: 50.0 mg/kg/injection, schedule: Q01DX005 (ip), vehicle: saline + Tween-80 + alcohol) was 104 % of control, the T/C (dose: 100.0 mg/kg/injection, schedule: Q01DX005 (ip), vehicle: saline + Tween-80 + alcohol) was 108 % of control and the T/C (dose: 200.0 mg/kg/injection, schedule: Q01DX005 (ip), vehicle: saline + Tween-80 + alcohol) was 118 % of control.
For `CCOC(=O)C(N)Cc1ccc(N(CCCl)CCCl)cc1` (configuration not stated), the T/C (dose: 0.5 mg/kg/injection, schedule: Q04DX003 (ip), vehicle: saline) was 180 % of control, the T/C (dose: 1.0 mg/kg/injection, schedule: Q04DX003 (ip), vehicle: saline) was 195 % of control and the T/C (dose: 2.0 mg/kg/injection, schedule: Q04DX003 (ip), vehicle: saline) was 250 % of control. For the same compound, the T/C (dose: 3.13 mg/kg/injection, schedule: Q01DX009 (ip), vehicle: saline) was 272 % of control, the T/C [1] was 100 % of control and the T/C (dose: 6.25 mg/kg/injection, schedule: Q04DX003 (ip), vehicle: saline) was 272 % of control. The T/C (dose: 12.5 mg/kg/injection, schedule: Q04DX003 (ip), vehicle: saline) was 240 % of control, the T/C (dose: 63.0 micrograms/kg/injection, schedule: Q04DX003 (ip), vehicle: saline) was 113 % of control and the T/C (dose: 125.0 micrograms/kg/injection, schedule: Q04DX003 (ip), vehicle: saline) was 113 % of control.
In the case of `CCNC(=O)Nc1ccc(Cl)cn1`, the T/C (dose: 50.0 mg/kg/injection, schedule: Q01DX009 (ip), vehicle: saline) is reported as 102 % of control, the T/C (dose: 100.0 mg/kg/injection, schedule: Q01DX009 (ip), vehicle: saline) is reported as 105 % of control and the T/C (dose: 200.0 mg/kg/injection, schedule: Q01DX009 (ip), vehicle: saline) is reported as 105 % of control.
With `O/N=C(/Cc1nc2cc(Cl)c(Cl)cc2nc1C/C(=N/O)c1ccncc1)c1ccncc1` the T/C (dose: 60.0 mg/kg/injection, schedule: Q01DX005 (ip), vehicle: saline with Tween-80) was 102 % of control, the T/C (dose: 120.0 mg/kg/injection, schedule: Q01DX005 (ip), vehicle: saline with Tween-80) was 100 % of control and the T/C (dose: 240.0 mg/kg/injection, schedule: Q01DX005 (ip), vehicle: saline with Tween-80) was 102 % of control.
`CC1(C)N=C(N)N=C(N)N1c1ccc(CCCCc2ccc(Cl)c(S(=O)(=O)F)c2)c(Cl)c1` was tested, and the T/C (dose: 2.0 mg/kg/injection, schedule: Q01DX009 (ip), vehicle: saline with Tween-80) was 154 % of control, the T/C (dose: 8.0 mg/kg/injection, schedule: Q01DX009 (ip), vehicle: saline with Tween-80) was 154 % of control and the T/C (dose: 8.0 mg/kg/injection, schedule: Q01DX009 (ip), vehicle: saline) was 172 % of control and 175 % of control. The T/C (dose: 12.0 mg/kg/injection, schedule: Q01DX009 (ip), vehicle: saline) was 180 % of control and 181 % of control, the T/C (dose: 18.0 mg/kg/injection, schedule: Q01DX009 (ip), vehicle: saline) was 163 % of control and 172 % of control and 180 % of control and the T/C (dose: 27.0 mg/kg/injection, schedule: Q01DX009 (ip), vehicle: saline) was 154 % of control and 172 % of control.
